Measurements from patent US6414019B1, “Synergistic mixtures of selected amino acids” (Agrogene Ltd., priority 1997, dated 2002).
Converted amounts (≈) assume the structure as drawn. “And” between values parts separate entries of the source, which are not always exact repeats. Equal entries are not always repeated.

What was measured:
[1] = tested on: Pseudoperonospora cubensis (resistance to metalaxyl); settings: in vivo
[2] = tested on: Peronospora tabacina R strain; experiment: Control of downy mildew in tobacco, fungal isolate R (sporulation inhibition); type: in vivo
[3] = tested on: Peronospora tabacina S strain; experiment: Control of downy mildew in tobacco, fungal isolate S (sporulation inhibition); type: in vivo
Plasmopara viticola = settings: in vivo
[4] = 50 mg/L active ingredient, fungal isolate R, Table 28
[5] = 0.5 mg/L active ingredient, tobacco, fungal isolate S (Table 31)
[6] = 5 mg/L active ingredient, tobacco, fungal isolate S (Table 31)
[7] = 50 mg/L active ingredient, tobacco, fungal isolate S (Table 31)
[8] = 16 mg/L active ingredient, fungal isolate R, Table 29
[9] = 62 mg/L active ingredient, fungal isolate R, Table 29
[10] = 100 mg/L active ingredient, fungal isolate R, Table 30
[11] = 200 mg/L active ingredient, fungal isolate R, Table 30
[12] = 250 mg/L active ingredient, fungal isolate R, Table 29
[13] = 400 mg/L active ingredient, fungal isolate R, Table 30

COCC(=O)N(c1c(C)cccc1C)[C@H](C)C(=O)OC (single isomer, unassigned) [Metalaxyl Single Isomer]
ED90 [1]: 844 µg/mL (≈ 3020 µM)
Percent Disease Control [1]: 0% and 8%

CO/C=C(/C(=O)OC)c1ccccc1Oc1cc(Oc2ccccc2C#N)ncn1 [AZOXYSTROBINE, Azoxystrobin]
Percent Disease Control ([2]; 5 mg/L active ingredient, fungal isolate R, Table 28): 81%
Percent Disease Control ([2]; 10 mg/L active ingredient, fungal isolate R, Table 28): 81%
Percent Disease Control ([2]; 25 mg/L active ingredient, fungal isolate R, Table 28): 81%
Percent Disease Control [2, 4]: 93%
Percent Disease Control ([2]; dose not printed (value stands in the Ratio column), fungal isolate R, Table 28): 13%
ED90 ([2]; fungal isolate R, Table 28): 27 µg/mL (≈ 66.9 µM)

CC(N)CC(=O)O (stereo not drawn) [BABA, DLβ-amino-butanoic acid]
Percent Disease Control [3, 5]: 0%
Percent Disease Control [3, 6]: 27%
Percent Disease Control [3, 7]: 59%
ED90 ([3]; in vivo): 78 µg/mL (≈ 756 µM)
ED90 (Plasmopara viticola): 38 µg/mL and 33 µg/mL and 36 µg/mL and 44 µg/mL
Percent Disease Control [2, 8]: 3%
Percent Disease Control [2, 4]: 0%
Percent Disease Control [2, 9]: 27%
Percent Disease Control ([2]; 100 mg/L active ingredient, fungal isolate R, Table 28): 13%
Percent Disease Control [2, 10]: 37%
Percent Disease Control ([2]; 200 mg/L active ingredient, fungal isolate R, Table 28): 100%
Percent Disease Control [2, 11]: 62%
Percent Disease Control [2, 12]: 51%
Percent Disease Control [2, 13]: 100%

CSC(=O)c1cccc2nnsc12 [BION, Acibenzolar-s-methyl]
Percent Disease Control [3, 5]: 54%
Percent Disease Control [3, 6]: 76%
Percent Disease Control [3, 7]: 85%
ED90 ([3]; tobacco, fungal isolate S (Table 31)): 52 µg/mL (≈ 247 µM)
ED90 (Plasmopara viticola): 6 µg/mL (≈ 28.5 µM)
Percent Disease Control [2, 8]: 76%
Percent Disease Control [2, 9]: 76%
Percent Disease Control [2, 10]: 37%
Percent Disease Control [2, 11]: 50%
Percent Disease Control [2, 12]: 99%
Percent Disease Control [2, 13]: 80%
ED90 ([2]; fungal isolate R, Table 29): 88 µg/mL (≈ 418 µM)
ED90 ([2]; fungal isolate R, Table 30): 443 µg/mL (≈ 2110 µM)

[Cu+2].[OH-].[OH-] [Cu(OH)2, copper hydroxide]
ED90 [1]: 304 µg/mL
Percent Disease Control [1]: 67% and 77% and 80%

CCNC(=O)NC(=O)/C(C#N)=N/OC [Cymoxanil]
Percent Disease Control [2, 10]: 25%
Percent Disease Control [2, 11]: 25%
Percent Disease Control [2, 13]: 62%
ED90 ([2]; in vivo): 596 µg/mL (≈ 3010 µM)

COc1ccc(C(=CC(=O)N2CCOCC2)c2ccc(Cl)cc2)cc1OC [DMN, DIMETHOMORPH]
ED90 (Plasmopara viticola): 19 µg/mL (≈ 49 µM)
Percent Disease Control [1]: 32% Control

O=C1c2ccccc2C(=O)N1SC(Cl)(Cl)Cl [FOLPET, Folpet]
ED90 [1]: 403 µg/mL (≈ 1360 µM)

Cc1ccc(C(C)NC(=O)[C@@H](NC(=O)OC(C)C)C(C)C)cc1 (stereo partly shown) [Fencaramid]
ED90 [1]: 19 µg/mL (≈ 59.3 µM)
Percent Disease Control [1]: 78% and 83% and 95% and 100%

COCC(=O)N(c1c(C)cccc1C)[C@H](C)C(=O)OC [RIDOMILGOLD]
Percent Disease Control [2, 8]: 49%
Percent Disease Control [2, 9]: 37%
Percent Disease Control [2, 10]: 20%
Percent Disease Control [2, 11]: 35%
Percent Disease Control [2, 12]: 58%
Percent Disease Control [2, 13]: 42%
ED90 ([2]; fungal isolate R, Table 29): 416 µg/mL (≈ 1490 µM)
ED90 ([2]; fungal isolate R, Table 30): >1000 µg/mL

Mancozeb
ED90 [1]: 315 µg/mL and 167 µg/mL
